{"source": "ChEMBL document CHEMBL1150620", "about": "“Two new minor polybrominated dibenzo-p-dioxins from the marine sponge Dysidea dendyi” (J Nat Prod, 2002)", "data": [{"experiment": "Inhibition of cell division of Strongylocentrotus intermedius fertilized eggs", "assay_type": "functional, Egg", "units": {"IC50": "µM"}, "values": [{"smiles": "COc1cc(Br)cc(Br)c1Oc1cc(Br)cc(Br)c1O", "IC50": 4.7}, {"smiles": "COc1c(Br)cc(Br)cc1Oc1ccc(Br)cc1Br", "IC50": 145}, {"smiles": "COc1cc(Br)cc(Br)c1Oc1cc(Br)cc(Br)c1OC", "IC50": 137}, {"smiles": "COc1cc(Br)c(Br)c2c1Oc1cc(Br)cc(Br)c1O2", "note": "[SPONGIADIOXIN A METHYL ETHER]", "IC50": 141}, {"smiles": "Oc1cc(Br)c(Br)c2c1Oc1cc(Br)cc(Br)c1O2", "note": "[SPONGIADIOXIN A]", "IC50": 4.8}, {"smiles": "COc1c(Br)c(Br)cc2c1Oc1cc(Br)cc(Br)c1O2", "note": "[SPONGIADIOXIN B METHYL ETHER]", "IC50": 94}, {"smiles": "Oc1c(Br)c(Br)cc2c1Oc1cc(Br)cc(Br)c1O2", "note": "[SPONGIADIOXIN B]", "IC50": 1.1}, {"smiles": "COc1cc(Br)cc2c1Oc1cc(Br)cc(Br)c1O2", "note": "[SPONGIADIOXIN C METHYL ETHER]", "IC50": 166}, {"smiles": "Oc1cc(Br)cc2c1Oc1cc(Br)cc(Br)c1O2", "note": "[SPONGIADIOXIN C]", "IC50": 5.7}]}]}
